We go through two molecules from patent US20030068663A1, “Method and kit for measuring skin inflammation or irritation” (priority 2001, published 2003).

Where “and” joins values, the source holds several entries; their conditions need not be identical. Identical values can stand only once.

For series [1], the system named is PGE2 expressed on the skin surface. The series can be described thus: PGE2 on skin surface 24 h after 4 h Hill Top chamber exposure, Sebutape collection, immunoassay. Type of series: in vivo, human. To be noted: for Normalized levels of PGE2, Average: average of 10 panelists; for Normalized levels of PGE2: individual panelists 1-10. On the procedure:
Assay Designs, Inc. PGE2 Enzyme Immunoassay:
(§1) 1. Baseline (corresponding to an untreated control) levels of PGE2 contained in secretions present on the skin surface were measured along the lower volar forearms of test panelists by placing a mild adhesive-coated microporous plastic film, Sebutape® (Cuderm Corporation, Dallas, Tex.), on the skin with the adhesive side down, making direct contact with the skin. The Sebutape® was removed from the skin after 1 minute and then placed in a vial containing 500 μL saline. This Sebutape® collection process was repeated three more times with a 1-minute contact time for each Sebutape®. The collected samples were stored at −70 ° C. until analysis (described below).
(§2) 2. Hill Top chambers® (Hill Top Research, Cincinnati, Ohio) containing 400 μL of the test fluid (deionized or tap water) were applied to the lower volar forearms of the test panelists. After 4 hours of exposure, the Hill Top chambers® were removed and the test sites were rinsed with tap water and patted dry.
(§3) 3. Twenty four hours after the Hill Top chambers® were removed and the arm was rinsed and patted dry, skin secretions containing PGE2 expressed on the skin surface were collected using the Sebutape absorption method described previously in Step #1 above.
The collected Sebutape® samples were analyzed using the following methods. After thawing, the samples were sonicated for 15 minutes and vortexed vigorously. The solutions, containing extracted proteins and eicosanoids, were analyzed for levels of PGE2 via immunoassay (Assay Designs High Sensitivity PGE2 Enzyme Immunoassay #93001) and levels of total protein using the bicinchoninic acid (BCA) protein assay (Kit #23225, Pierce Chemical Company, Rockford, Ill.).
Four Sebutape® samples were taken from each test site. The measured levels of PGE2 (in pg/mL) were normalized against the total amount of protein (in μg/mL) extracted from each Sebutape® strip. The four normalized values were then averaged to determine the levels of PGE2 (in pg/μg) expressed for each test site. To account for person-to-person variability, PGE2 levels, for each panelist were further normalized relative to the levels of PGE2 measured for the untreated control.
The method of Example 1 was extended to measure the level of inflammation or irritation elicited by a dilute solution (8% w/w in deionized water) of a mild facial cleanser (Neutrogena Fresh Foaming Cleanser, Neutrogena Corporation, Los Angeles, California) compared to that of deionized water.

Series [2] deals with IL-1α expressed on the skin. The series can be described thus: IL-1α on skin surface after Hill Top chamber exposure to SLS solutions, Sebutape collection, ELISA. Type of series: in vivo, human. The procedure:
Endogen, Inc. Interleukin-1α ELISA
as §1, §2, §3
The level of irritation caused by dilute solutions of SLS as a function of SLS concentration was assessed using the method described in Example 1, with the exception that the level of Interleukin-1α(IL-1α) was used to assess the degree of irritation, rather than PGE2. The levels of IL-1α were measured via immunoassay (Human IL-1αKit #EH2-IL1a, Endogen, Inc., Woburn. Mass.). As with PGE2, the measured levels of IL-1α(in pg/mL) were normalized against the total amount of protein (in μg/mL) extracted from each Sebutape® strip. To account for person-to-person variability, IL-1α levels for each treatment site were further normalized using the baseline levels of IL-1α measured for the untreated control.

As for `O` [Deionized Water], the “Normalized levels of PGE2, Average” value came out at 1.53 dimensionless units in series [1] (Example 3, cleanser as 8% w/w in deionized water) and 0.86 dimensionless units in series [1] (4 h chamber on volar forearm, collected 24 h later). The “Normalized levels of PGE2” value in series [1] (Example 3, cleanser as 8% w/w in deionized water, 4 h chamber) was 1.49 dimensionless units and 2.12 dimensionless units and 1.25 dimensionless units and 1.60 dimensionless units and 1.77 dimensionless units and 1.45 dimensionless units and 1.98 dimensionless units and 1.48 dimensionless units and 1.30 dimensionless units and 0.83 dimensionless units; in series [1] (400 μL fluid, 4 h chamber on volar forearm, collected 24 h later, normalized to protein and untreated control), 0.92 dimensionless units and 0.84 dimensionless units and 0.93 dimensionless units and 1.71 dimensionless units and 1.01 dimensionless units and 0.94 dimensionless units and 0.40 dimensionless units and 0.56 dimensionless units and 0.62 dimensionless units and 0.69 dimensionless units.

On to `CCCCCCCCCCCCOS(=O)(=O)[O-].[Na+]` [SLS, sodium lauryl sulfate], for which the “Levels of IL-1α” value in series [2] (5 w/w % SLS in deionized water) was 2.83 dimensionless units; in series [2] (10 w/w % SLS in deionized water) it was 2.71 dimensionless units; in series [2] (20 w/w % SLS in deionized water), 1.00 dimensionless units.
